According to patent US7491794B2, “Macrocyclic compounds as inhibitors of viral replication” (Intermune, Inc., priority 2003, dated 2009):
Where two headings read alike, the source gives them in different places.

Columns and labels:
NS3-NS4A protease = target: T1, NS3-NS4A protease (Hepatitis C virus genotype 1a, UniProt P27958); assay: NS3-NS4A protease assay (NS3 inhibition assay, RETS1 substrate), Section B; type: biochemical
T1 construct: Recombinant E. coli or Baculovirus full-length NS3 was diluted to 3.33 μM with assay buffer; made in house; host or cells: E. coli or baculovirus (BV) system
Procedure, shortened: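 Full-length NS3 (E. coli or baculovirus) precomplexed with excess NS4A-2 peptide, run at 2 nM (E. coli) or 3 nM (BV) NS3; compounds pre-incubated 10 min at room temperature before RETS1 substrate. Fluorescence (ex 335/em 495 nm) read kinetically 30 min; IC50 from four-parameter fit, converted to Ki via Ki=IC50/(1+[S]/Km).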

[1] = test system: HCV sub-genomic replicon, GS4.3; assay: Quantitation by ELISA of NPTII in the HCV sub-genomic replicon, GS4.3, Section B; type: cell-based; conditions: Hepatitis C virus; GS4.3 cells, 72 h incubation; read-out: Replicon EC50
Procedure, shortened: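 GS4.3 cells (HuH-7 carrying HCV 1377/NS3-3′ replicon) were treated 72 h at 37 °C with inhibitors in 3-fold dilutions, 1% DMSO, no G418. Lysate NPTII was measured by ELISA (TMB, 450 nm). Signal as % of DMSO control; EC50 from 4-parameter fit.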

T1 sequence (P27958 1027-1657): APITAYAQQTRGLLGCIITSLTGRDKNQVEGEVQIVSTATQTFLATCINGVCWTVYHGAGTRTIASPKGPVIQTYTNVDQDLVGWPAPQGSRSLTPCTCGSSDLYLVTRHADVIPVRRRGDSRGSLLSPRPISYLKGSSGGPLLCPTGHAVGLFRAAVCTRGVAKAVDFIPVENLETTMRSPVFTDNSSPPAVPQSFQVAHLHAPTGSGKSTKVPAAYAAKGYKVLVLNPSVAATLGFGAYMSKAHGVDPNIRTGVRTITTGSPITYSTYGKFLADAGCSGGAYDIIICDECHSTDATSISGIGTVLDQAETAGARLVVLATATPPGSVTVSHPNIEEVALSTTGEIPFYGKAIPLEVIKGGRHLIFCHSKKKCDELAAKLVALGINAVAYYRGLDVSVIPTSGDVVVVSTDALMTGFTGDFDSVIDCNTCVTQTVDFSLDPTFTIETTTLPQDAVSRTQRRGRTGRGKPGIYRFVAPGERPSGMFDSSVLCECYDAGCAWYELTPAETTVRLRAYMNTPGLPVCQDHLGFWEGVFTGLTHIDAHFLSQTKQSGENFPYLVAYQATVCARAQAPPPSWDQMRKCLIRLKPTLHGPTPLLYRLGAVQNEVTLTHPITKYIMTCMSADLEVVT

| SMILES | IC50 (NS3-NS4A protease; read-out: NS3-NS4A IC50) [nM] | EC50 [1] [nM] | IC50 (NS3-NS4A protease) [nM] |
| --- | --- | --- | --- |
| CC(C)(C)OC(=O)N[C@H]1CCCCC/C=C\[C@@H]2C[C@@]2(C(=O)NS(=O)(=O)C2CC2)NC(=O)[C@@H]2C[C@@H](OC(=O)N3Cc4ccccc4C4(CCC4)C3)CN2C1=O [AR00312024, (1S,4R,6S,14S,18R)-4,4-Spirocyclobutyl-3,4-dihydro-1H-isoquinoline-2-carboxylic acid 14-tert-butoxycarbonylamino-4-cyclopropanesulfonylaminocarbonyl-2,15-dioxo-3,16-diaza-tricyclo[14.3.0.0^4,6]nonadec-7-en-18-yl ester] | < 100 | < 100 | – |
| CC(=O)N[C@H](C(=O)N[C@H]1CCCCC/C=C\[C@@H]2C[C@@]2(C(=O)NS(=O)(=O)C2CC2)NC(=O)[C@@H]2C[C@@H](OC(=O)N3Cc4cccc(F)c4C3)CN2C1=O)C1CCCCC1 [AR00340122, (1S,4R,6S,14S,18R)-4-Fluoro-1,3-dihydro-isoindole-2-carboxylic acid 14-(2-acetylamino-2-cyclohexyl-acetylamino)-4-cyclopropanesulfonylaminocarbonyl-2,15-dioxo-3,16-diaza-tricyclo[14.3.0.0^4,6]nonadec-7-en-18-yl ester] | – | < 1000 | < 100 |
| CC(C)(C)OC(=O)N[C@H]1CCCCC/C=C\[C@@H]2C[C@@]2(C(=O)O)NC(=O)[C@@H]2C[C@@H](OC(=O)N3CCc4nc(Nc5ccccc5)sc4C3)CN2C1=O [AR00304000, (1S,4R,6S,14S,18R)-14-tert-Butoxycarbonylamino-2,15-dioxo-18-(2-phenylamino-6,7-dihydro-4H-thiazolo[5,4-c]pyridine-5-carbonyloxy)-3,16-diaza-tricyclo[14.3.0.0^4,6]nonadec-7-ene-4-carboxylic acid] | < 1000 | < 10000 | – |
| O=C(N[C@H]1CCCCCC=C[C@@H]2C[C@@]2(C(=O)NS(=O)(=O)C2CC2)NC(=O)[C@@H]2C[C@@H](OC(=O)N3Cc4ccccc4C3)CN2C1=O)OC1CCCC1 [AR00333831, (1S,4R,6S,14S,18R)-1,3-Dihydro-isoindole-2-carboxylic acid 14-cyclopentyloxycarbonylamino-4-cyclopropanesulfonylaminocarbonyl-2,15-dioxo-3,16-diaza-tricyclo[14.3.0.0^4,6]nonadec-7-en-18-yl ester] | < 100 | < 100 | – |
| O=C(NC1CCCC1)N[C@H]1CCCCC/C=C\[C@@H]2C[C@@]2(C(=O)O)NC(=O)[C@@H]2C[C@@H](OC(=O)N3CCc4c(F)cccc4C3)CN2C1=O [AR00304077, (1S,4R,6S,14S,18R)-14-(3-Cyclopentyl-ureido)-18-(5-fluoro-3,4-dihydro-1H-isoquinoline-2-carbonyloxy)-2,15-dioxo-3,16-diaza-tricyclo[14.3.0.0^4,6]nonadec-7-ene-4-carboxylic acid] | < 100 | < 10000 | – |
| CC(C)(C)OC(=O)N[C@H]1CCCCC/C=C\[C@@H]2C[C@@]2(C(=O)NS(=O)(=O)C2CC2)NC(=O)[C@@H]2C[C@@H](OC(=O)N3Cc4ccc(C(=O)O)cc4C3)CN2C1=O [AR00365084, (1S,4R,6S,14S,18R)-1,3-Dihydro-isoindole-2,5-dicarboxylic acid 2-(14-tert-butoxycarbonylamino-4-cyclopropanesulfonylaminocarbonyl-2,15-dioxo-3,16-diaza-tricyclo[14.3.0.0^4,6]nonadec-7-en-18-yl) ester] | < 100 | < 10000 | – |
| CC(C)(C)OC(=O)N[C@H]1CCCCC/C=C\[C@@H]2C[C@@]2(C(=O)NS(=O)(=O)C2CC2)NC(=O)[C@@H]2C[C@@H](NC(=S)N3CCc4ccccc4C3)CN2C1=O [AR00304012, (1S,4R,6S,14S,18R)-{4-Cyclopropanesulfonylaminocarbonyl-18-[(3,4-dihydro-1H-isoquinoline-2-carbothioyl)-amino]-2,15-dioxo-3,16-diaza-tricyclo[14.3.0.0^4,6]nonadec-7-en-14-yl}-carbamic acid tert-butyl ester] | < 100 | < 1000 | – |
| O=C(N[C@H]1CCCCC/C=C\[C@@H]2C[C@@]2(C(=O)NS(=O)(=O)C2CC2)NC(=O)[C@@H]2C[C@@H](OC(=O)N3CCc4ccccc4C3)CN2C1=O)OC1CCOCC1 [AR00320082, (1S,4R,6S,14S,18R)-3,4-Dihydro-1H-isoquinoline-2-carboxylic acid 4-cyclopropanesulfonylaminocarbonyl-2,15-dioxo-14-(tetrahydro-pyran-4-yloxycarbonylamino)-3,16-diaza-tricyclo[14.3.0.0^4,6]nonadec-7-en-18-yl ester] | < 100 | < 100 | – |
| CC(C)(C)OC(=O)N[C@H]1CCCCC/C=C\[C@@H]2C[C@@]2(C(=O)NS(=O)(=O)C2CC2)NC(=O)[C@@H]2C[C@@H](OC(=O)N3CCc4ccc(Cl)cc4C3)CN2C1=O [AR00301746, (1S,4R,6S,14S,18R)-7-Chloro-3,4-dihydro-1H-isoquinoline-2-carboxylic acid 14-tert-butoxycarbonylamino-4-cyclopropanesulfonylaminocarbonyl-2,15-dioxo-3,16-diaza-tricyclo[14.3.0.0^4,6]nonadec-7-en-18-yl ester] | < 100 | < 100 | – |
| O=C(N[C@H]1CCCCCCCC2C[C@@]2(C(=O)NS(=O)(=O)C2CC2)NC(=O)[C@@H]2C[C@@H](OC(=O)N3CCc4ccccc4C3)CN2C1=O)OC1CCCC1 (stereo in doubt) [AR00324375, (1S,4R,6S,14S,18R)-3,4-Dihydro-1H-isoquinoline-2-carboxylic acid 14-cyclopentyloxycarbonylamino-4-cyclopropanesulfonylaminocarbonyl-2,15-dioxo-3,16-diaza-tricyclo[14.3.0.0^4,6]nonadec-18-yl ester] | < 1000 | < 1000 | – |
| O=C(N[C@H]1CCCCC/C=C\[C@@H]2C[C@@]2(C(=O)NS(=O)(=O)C2CC2)NC(=O)[C@@H]2C[C@@H](OC(=O)N3CCc4ccccc4C3)CN2C1=O)O[C@H]1CCOC1 [AR00304162, (1S,4R,6S,14S,18R)-3,4-Dihydro-1H-isoquinoline-2-carboxylic acid 4-cyclopropanesulfonylaminocarbonyl-2,15-dioxo-14-(tetrahydro-furan-3-yloxycarbonylamino)-3,16-diaza-tricyclo[14.3.0.0^4,6]nonadec-7-en-18-yl ester] | < 100 | < 100 | – |
| O=C(N[C@H]1CCCCC/C=C\[C@@H]2C[C@@]2(C(=O)O)NC(=O)[C@@H]2C[C@@H](OC(=O)N3Cc4ccccc4C3)CN2C1=O)OC1CCCC1 [AR00304076, (1S,4R,6S,14S,18R)-14-Cyclopentyloxycarbonylamino-18-(1,3-dihydro-isoindole-2-carbonyloxy)-2,15-dioxo-3,16-diaza-tricyclo[14.3.0.0^4,6]nonadec-7-ene-4-carboxylic acid] | < 100 | < 1000 | – |
| O=C(NC1CCCC1)N[C@H]1CCCCC/C=C\[C@@H]2C[C@@]2(C(=O)NS(=O)(=O)C2CC2)NC(=O)[C@@H]2C[C@@H](NC(=O)N3Cc4ccccc4C3)CN2C1=O [AR00304014, (1S,4R,6S,14S,18R)-1,3-Dihydro-isoindole-2-carboxylic acid [14-(3-cyclopentyl-ureido)-4-cyclopropanesulfonylaminocarbonyl-2,15-dioxo-3,16-diaza-tricyclo[14.3.0.0^4,6]nonadec-7-en-18-yl]-amide] | < 100 | < 100 | – |
| CC(C)(C)OC(=O)N[C@H]1CCCCC/C=C\[C@@H]2C[C@@]2(C(=O)O)NC(=O)[C@@H]2C[C@@H](OC(=O)N3Cc4ccccc4C4(CCC4)C3)CN2C1=O [AR00304065, (1S,4R,6S,14S,18R)-14-tert-Butoxycarbonylamino-18-(4,4-spirocyclobutyl-3,4-dihydro-1H-isoquinoline-2-carbonyloxy)-2,15-dioxo-3,16-diaza-tricyclo[14.3.0.0^4,6]nonadec-7-ene-4-carboxylic acid] | < 1000 | < 10000 | – |
| COc1ccc2[nH]c3c(c2c1)CCN(C(=O)O[C@@H]1C[C@H]2C(=O)N[C@]4(C(=O)O)C[C@H]4/C=C\CCCCC[C@H](NC(=O)OC(C)(C)C)C(=O)N2C1)C3 [AR00320577, (1S,4R,6S,14S,18R)-14-tert-Butoxycarbonylamino-18-(6-methoxy-1,3,4,9-tetrahydro-b-carboline-2-carbonyloxy)-2,15-dioxo-3,16-diaza-tricyclo[14.3.0.0^4,6]nonadec-7-ene-4-carboxylic acid] | < 1000 | < 10000 | – |
| CC(C)(C)OC(=O)N[C@H]1CCCCC/C=C\[C@@H]2C[C@@]2(C(=O)NS(=O)(=O)C2CC2)NC(=O)[C@@H]2C[C@@H](OC(=O)N3CCc4ccccc4C3CN3CCCCC3)CN2C1=O (stereo partly drawn) [AR00311815, (1S,4R,6S,14S,18R)-1-Piperidin-1-ylmethyl-3,4-dihydro-1H-isoquinoline-2-carboxylic acid 14-tert-butoxycarbonylamino-4-cyclopropanesulfonylaminocarbonyl-2,15-dioxo-3,16-diaza-tricyclo[14.3.0.0^4,6]nonadec-7-en-18-yl ester] | < 100 | < 1000 | – |
| CN(C)c1cccc2c1CCN(C(=O)O[C@@H]1C[C@H]3C(=O)N[C@]4(C(=O)NS(=O)(=O)C5CC5)C[C@H]4/C=C\CCCCC[C@H](NC(=O)OC(C)(C)C)C(=O)N3C1)C2 [AR00320120, (1S,4R,6S,14S,18R)-5-Dimethylamino-3,4-dihydro-1H-isoquinoline-2-carboxylic acid 14-tert-butoxycarbonylamino-4-cyclopropanesulfonylaminocarbonyl-2,15-dioxo-3,16-diaza-tricyclo[14.3.0.0^4,6]nonadec-7-en-18-yl ester] | < 100 | < 100 | – |
